Data taken from patent US12077503B2, “Substituted cyclic amides and their use as herbicides” (FMC CORPORATION, priority 2015, dated 2024).

Assays:
Format in all cases: in vivo
[1] = system: barnyardgrass (Echinochloa crus-galli); experiment: Test G Pre-Emergence Protocol; details: Echinochloa crus-galli, pre-emergence, 312 h, evaluated after 13 days; for pest or weed control at 15.625 g/ha: 15.625 g ai/ha; for pest or weed control at 15.625 g/ha / pest or weed control at 250 g/ha: read-out: Barnyardgrass damage rating (100=total damage to plant; 0=no damage to plant); for pest or weed control at 62.5 g/ha: 62.5 g ai/ha, 100=total damage to plant, 0=no damage to plant, read-out: Barnyardgrass damage rating; for pest or weed control at 250 g/ha: 250 g ai/ha
In short: (§1)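 Pots of seeds in standard soil were grown for one day in a glasshouse (24/16 °C day/night, 14 h light, 65% humidity), then sprayed with compound in acetone/water 50:50 with 0.5% Tween 20 at 15.625, 62.5 or 250 g/ha. Damage was scored after 13 days on a 0 (none) to 100 (total) scale.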

corn (Zea mays) [2] = experiment: Test G Pre-Emergence Protocol; details: Zea mays, pre-emergence, 312 h, evaluated after 13 days; for plant injury at 15.625 g/ha: 15.625 g ai/ha; for plant injury at 15.625 g/ha / plant injury at 250 g/ha: read-out: Corn damage rating (100=total damage to plant; 0=no damage to plant); for plant injury at 62.5 g/ha: 62.5 g ai/ha, 100=total damage to plant, 0=no damage to plant, read-out: Corn damage rating; for plant injury at 250 g/ha: 250 g ai/ha
In short: as §1

[3] = system: giant foxtail (Setaria faberi); experiment: Test G Pre-Emergence Protocol; details: Setaria faberi, pre-emergence, 312 h, evaluated after 13 days; for pest or weed control at 15.625 g/ha: 15.625 g ai/ha; for pest or weed control at 15.625 g/ha / pest or weed control at 250 g/ha: read-out: Foxtail, Giant damage rating (100=total damage to plant; 0=no damage to plant); for pest or weed control at 62.5 g/ha: 62.5 g ai/ha, 100=total damage to plant, 0=no damage to plant, read-out: Foxtail, Giant damage rating; for pest or weed control at 250 g/ha: 250 g ai/ha
In short: as §1

[4] = system: ivy-leaved morning glory (Ipomoea hederacea); experiment: Test G Pre-Emergence Protocol; details: Ipomoea, pre-emergence, 312 h, evaluated after 13 days; for pest or weed control at 15.625 g/ha: 15.625 g ai/ha; for pest or weed control at 15.625 g/ha / pest or weed control at 250 g/ha: read-out: Morningglory, Ivy-leaved damage rating (100=total damage to plant; 0=no damage to plant); for pest or weed control at 62.5 g/ha: 62.5 g ai/ha, 100=total damage to plant, 0=no damage to plant, read-out: Morningglory, Ivy-leaved damage rating; for pest or weed control at 250 g/ha: 250 g ai/ha
In short: as §1

[5] = system: redroot pigweed (Amaranthus retroflexus); experiment: Test G Pre-Emergence Protocol; details: Amaranthus retroflexus, pre-emergence, 312 h, evaluated after 13 days; for pest or weed control at 15.625 g/ha: 15.625 g ai/ha; for pest or weed control at 15.625 g/ha / pest or weed control at 250 g/ha: read-out: Pigweed, Redroot damage rating (100=total damage to plant; 0=no damage to plant); for pest or weed control at 62.5 g/ha: 62.5 g ai/ha, 100=total damage to plant, 0=no damage to plant, read-out: Pigweed, Redroot damage rating; for pest or weed control at 250 g/ha: 250 g ai/ha
In short: as §1

[6] = system: velvetleaf (Abutilon theophrasti); experiment: Test G Pre-Emergence Protocol; details: Abutilon theophrasti, pre-emergence, 312 h, evaluated after 13 days; for pest or weed control at 15.625 g/ha: 15.625 g ai/ha; for pest or weed control at 15.625 g/ha / pest or weed control at 250 g/ha: read-out: Velvetleaf damage rating (100=total damage to plant; 0=no damage to plant); for pest or weed control at 62.5 g/ha: 62.5 g ai/ha, 100=total damage to plant, 0=no damage to plant, read-out: Velvetleaf damage rating; for pest or weed control at 250 g/ha: 250 g ai/ha
In short: as §1

[7] = system: barnyardgrass (Echinochloa crus-galli); experiment: Test G Post-Emergence Protocol; details: Echinochloa crus-galli, post-emergence, 312 h, read-out: Barnyardgrass damage rating; for pest or weed control at 15.625 g/ha: 15.625 g ai/ha, evaluated after 13 days (100=total damage to plant; 0=no damage to plant); for pest or weed control at 62.5 g/ha: 62.5 g ai/ha; for pest or weed control at 62.5 g/ha / pest or weed control at 250 g/ha: evaluated after 13 days, 100=total damage to plant, 0=no damage to plant; for pest or weed control at 250 g/ha: 250 g ai/ha
In short: (§2)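 Foliar application was made 8 days after sowing, using an aqueous spray of the active in acetone/water (50:50) with 0.5% Tween 20, at doses of 15.625, 62.5 or 250 g/ha. Injury was assessed 13 days later, where 100 meant the plant was fully damaged.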

corn (Zea mays) [8] = experiment: Test G Post-Emergence Protocol; details: Zea mays, post-emergence, 312 h, read-out: Corn damage rating; for plant injury at 15.625 g/ha: 15.625 g ai/ha, evaluated after 13 days (100=total damage to plant; 0=no damage to plant); for plant injury at 62.5 g/ha: 62.5 g ai/ha; for plant injury at 62.5 g/ha / plant injury at 250 g/ha: evaluated after 13 days, 100=total damage to plant, 0=no damage to plant; for plant injury at 250 g/ha: 250 g ai/ha
In short: as §2

[9] = system: giant foxtail (Setaria faberi); experiment: Test G Post-Emergence Protocol; details: Setaria faberi, post-emergence, 312 h, read-out: Foxtail, Giant damage rating; for pest or weed control at 15.625 g/ha: 15.625 g ai/ha, evaluated after 13 days (100=total damage to plant; 0=no damage to plant); for pest or weed control at 62.5 g/ha: 62.5 g ai/ha; for pest or weed control at 62.5 g/ha / pest or weed control at 250 g/ha: evaluated after 13 days, 100=total damage to plant, 0=no damage to plant; for pest or weed control at 250 g/ha: 250 g ai/ha
In short: as §2

[10] = system: ivy-leaved morning glory (Ipomoea hederacea); experiment: Test G Post-Emergence Protocol; details: Ipomoea, post-emergence, 312 h, read-out: Morningglory, Ivy-leaved damage rating; for pest or weed control at 15.625 g/ha: 15.625 g ai/ha, evaluated after 13 days (100=total damage to plant; 0=no damage to plant); for pest or weed control at 62.5 g/ha: 62.5 g ai/ha; for pest or weed control at 62.5 g/ha / pest or weed control at 250 g/ha: evaluated after 13 days, 100=total damage to plant, 0=no damage to plant; for pest or weed control at 250 g/ha: 250 g ai/ha
In short: as §2

[11] = system: redroot pigweed (Amaranthus retroflexus); experiment: Test G Post-Emergence Protocol; details: Amaranthus retroflexus, post-emergence, 312 h, read-out: Pigweed, Redroot damage rating; for pest or weed control at 15.625 g/ha: 15.625 g ai/ha, evaluated after 13 days (100=total damage to plant; 0=no damage to plant); for pest or weed control at 62.5 g/ha: 62.5 g ai/ha; for pest or weed control at 62.5 g/ha / pest or weed control at 250 g/ha: evaluated after 13 days, 100=total damage to plant, 0=no damage to plant; for pest or weed control at 250 g/ha: 250 g ai/ha
In short: as §2

[12] = system: velvetleaf (Abutilon theophrasti); experiment: Test G Post-Emergence Protocol; details: Abutilon theophrasti, post-emergence, 312 h, read-out: Velvetleaf damage rating; for pest or weed control at 15.625 g/ha: 15.625 g ai/ha, evaluated after 13 days (100=total damage to plant; 0=no damage to plant); for pest or weed control at 62.5 g/ha: 62.5 g ai/ha; for pest or weed control at 62.5 g/ha / pest or weed control at 250 g/ha: evaluated after 13 days, 100=total damage to plant, 0=no damage to plant; for pest or weed control at 250 g/ha: 250 g ai/ha
In short: as §2

SMILES	pest or weed control at 15.625 g/ha [1] [%]	pest or weed control at 62.5 g/ha [1] [%]	pest or weed control at 250 g/ha [1] [%]	plant injury at 15.625 g/ha (corn (Zea mays) [2]) [%]	plant injury at 62.5 g/ha (corn (Zea mays) [2]) [%]	plant injury at 250 g/ha (corn (Zea mays) [2]) [%]	pest or weed control at 15.625 g/ha [3] [%]	pest or weed control at 62.5 g/ha [3] [%]	pest or weed control at 250 g/ha [3] [%]	pest or weed control at 15.625 g/ha [4] [%]	pest or weed control at 62.5 g/ha [4] [%]	pest or weed control at 250 g/ha [4] [%]	pest or weed control at 15.625 g/ha [5] [%]	pest or weed control at 62.5 g/ha [5] [%]	pest or weed control at 250 g/ha [5] [%]	pest or weed control at 15.625 g/ha [6] [%]	pest or weed control at 62.5 g/ha [6] [%]	pest or weed control at 250 g/ha [6] [%]	pest or weed control at 15.625 g/ha [7] [%]	pest or weed control at 62.5 g/ha [7] [%]	also measured
CN1C[C@@H](c2ccc(C(F)(F)F)cc2)[C@H](C(=O)Nc2cscn2)C1=O (racemic) [Compound 1659]	0	0	0	0	0	0	0	0	0	0	0	0	0	0	0	0	0	0	0	0	pest or weed control at 250 g/ha [7]: 20%; plant injury at 15.625 g/ha (corn (Zea mays) [8]): 0%; plant injury at 62.5 g/ha (corn (Zea mays) [8]): 0%; plant injury at 250 g/ha (corn (Zea mays) [8]): 10%; pest or weed control at 15.625 g/ha [9]: 0%; pest or weed control at 62.5 g/ha [9]: 0%; pest or weed control at 250 g/ha [9]: 40%; pest or weed control at 15.625 g/ha [10]: 0%; pest or weed control at 62.5 g/ha [10]: 0%; pest or weed control at 250 g/ha [10]: 0%; pest or weed control at 15.625 g/ha [11]: 0%; pest or weed control at 62.5 g/ha [11]: 0%; pest or weed control at 250 g/ha [11]: 20%; pest or weed control at 15.625 g/ha [12]: 0%; pest or weed control at 62.5 g/ha [12]: 0%; pest or weed control at 250 g/ha [12]: 0%
CC(C)S(=O)(=O)c1ccccc1NC(=O)[C@H]1C(=O)N(C)C[C@@H]1c1ccc(C(F)(F)F)cc1 (racemic) [Compound 1665]	0	0	20	0	0	0	0	0	80	0	0	20	0	0	20	0	0	0	0	0	pest or weed control at 250 g/ha [7]: 40%; plant injury at 15.625 g/ha (corn (Zea mays) [8]): 0%; plant injury at 62.5 g/ha (corn (Zea mays) [8]): 0%; plant injury at 250 g/ha (corn (Zea mays) [8]): 0%; pest or weed control at 15.625 g/ha [9]: 0%; pest or weed control at 62.5 g/ha [9]: 0%; pest or weed control at 250 g/ha [9]: 60%; pest or weed control at 15.625 g/ha [10]: 0%; pest or weed control at 62.5 g/ha [10]: 0%; pest or weed control at 250 g/ha [10]: 0%; pest or weed control at 15.625 g/ha [11]: 0%; pest or weed control at 62.5 g/ha [11]: 0%; pest or weed control at 250 g/ha [11]: 40%; pest or weed control at 15.625 g/ha [12]: 0%; pest or weed control at 62.5 g/ha [12]: 0%; pest or weed control at 250 g/ha [12]: 0%
